From ChEMBL document CHEMBL2401728, “An unexpected Dimroth rearrangement leading to annelated thieno[3,2-d][1,2,3]triazolo[1,5-a]pyrimidines with potent antitumor activity” (Eur J Med Chem, 2013)

Tests used:
Type in all cases: functional
[1] = test system: MDA-MB-435; assay: Cytotoxicity against human MDA-MB-435 cells assessed as cellular growth at 0.01 uM after 48 hrs by SRB assay relative to control
[2] = test system: NCI-H226; assay: Cytotoxicity against human NCI-H226 cells assessed as cellular growth at 0.01 uM after 48 hrs by SRB assay relative to control
[3] = test system: SR; assay: Cytotoxicity against human SR cells assessed as cellular growth at 0.01 uM after 48 hrs by SRB assay relative to control
[4] = test system: UACC-62; assay: Cytotoxicity against human UACC62 cells assessed as cellular growth at 100 uM after 48 hrs by SRB assay relative to control
[5] = test system: MDA-MB-435; assay: Cytotoxicity against human MDA-MB-435 cells assessed as cellular growth at 100 uM after 48 hrs by SRB assay relative to control
[6] = test system: SF-268; assay: Cytotoxicity against human SF268 cells assessed as cellular growth at 100 uM after 48 hrs by SRB assay relative to control
[7] = test system: KM12; assay: Cytotoxicity against human KM12 cells assessed as cellular growth at 100 uM after 48 hrs by SRB assay relative to control
[8] = test system: NCI-H522; assay: Cytotoxicity against human NCI-H522 cells assessed as cellular growth at 100 uM after 48 hrs by SRB assay relative to control
[9] = test system: A549; assay: Cytotoxicity against human A549 cells assessed as cellular growth at 100 uM after 48 hrs by SRB assay relative to control
[10] = test system: SK-MEL-28; assay: Cytotoxicity against human SK-MEL-28 cells assessed as cellular growth at 10 uM after 48 hrs by SRB assay relative to control
[11] = test system: HCT-116; assay: Cytotoxicity against human HCT116 cells assessed as cellular growth at 10 uM after 48 hrs by SRB assay relative to control
[12] = test system: HOP-62; assay: Cytotoxicity against human HOP62 cells assessed as cellular growth at 10 uM after 48 hrs by SRB assay relative to control
[13] = test system: IGROV-1; assay: Cytotoxicity against human IGROV1 cells at 10 uM after 48 hrs by SRB assay
[14] = test system: 786-0; assay: Cytotoxicity against human 786-0 cells assessed as cellular growth at 1 uM after 48 hrs by SRB assay relative to control
[15] = test system: OVCAR-5; assay: Cytotoxicity against human OVCAR5 cells assessed as cellular growth at 1 uM after 48 hrs by SRB assay relative to control
[16] = test system: OVCAR-4; assay: Cytotoxicity against human OVCAR4 cells assessed as cellular growth at 1 uM after 48 hrs by SRB assay relative to control
[17] = test system: Malme-3M; assay: Cytotoxicity against human MALME-3M cells assessed as cellular growth at 1 uM after 48 hrs by SRB assay relative to control
[18] = test system: HCT-116; assay: Cytotoxicity against human HCT116 cells assessed as cellular growth at 1 uM after 48 hrs by SRB assay relative to control
[19] = test system: NCI-H460; assay: Cytotoxicity against human NCI-H460 cells assessed as cellular growth at 1 uM after 48 hrs by SRB assay relative to control
[20] = test system: HOP-92; assay: Cytotoxicity against human HOP92 cells assessed as cellular growth at 1 uM after 48 hrs by SRB assay relative to control
[21] = test system: CCRF-CEM; assay: Cytotoxicity against human CCRF-CEM cells assessed as cellular growth at 1 uM after 48 hrs by SRB assay relative to control
[22] = test system: T47D; assay: Cytotoxicity against human T47D cells after 48 hrs by SRB assay
[23] = test system: TK-10; assay: Cytotoxicity against human TK10 cells after 48 hrs by SRB assay; settings: TK-10, 48 h
[24] = test system: RXF 393; assay: Cytotoxicity against human RXF393 cells after 48 hrs by SRB assay; settings: RXF 393, 48 h
[25] = test system: OVCAR-5; assay: Cytotoxicity against human OVCAR5 cells after 48 hrs by SRB assay; settings: OVCAR-5, 48 h
[26] = test system: IGROV-1; assay: Cytotoxicity against human IGROV1 cells after 48 hrs by SRB assay; settings: IGROV-1, 48 h
[27] = test system: SNB-75; assay: Cytotoxicity against human SNB75 cells after 48 hrs by SRB assay; settings: SNB-75, 48 h
[28] = test system: NCI-H322M; assay: Cytotoxicity against human NCI-H322M cells after 48 hrs by SRB assay
[29] = test system: HOP-92; assay: Cytotoxicity against human HOP92 cells after 48 hrs by SRB assay; settings: HOP-92, 48 h
[30] = test system: K562; assay: Cytotoxicity against human K562 cells after 48 hrs by SRB assay; settings: K562, 48 h
[31] = test system: MDA-MB-231; assay: Cytotoxicity against human MDA-MB-231 cells assessed as cellular growth at 0.1 uM after 48 hrs by SRB assay relative to control
[32] = test system: OVCAR-4; assay: Cytotoxicity against human OVCAR4 cells assessed as cellular growth at 0.1 uM after 48 hrs by SRB assay relative to control
[33] = test system: HOP-62; assay: Cytotoxicity against human HOP62 cells assessed as cellular growth at 0.1 uM after 48 hrs by SRB assay relative to control
[34] = test system: 786-0; assay: Cytotoxicity against human 786-0 cells assessed as cellular growth at 0.01 uM after 48 hrs by SRB assay relative to control
[35] = read-out: LC50 (the source's name)
[36] = read-out: pLC50 (the source's name) (converted)

In the case of CN1CCN(CCCn2c3c(sc4ncccc43)c(=O)n3nnc(-c4ccccc4)c23)CC1, the Activity [1] was 101%, the Activity [2] was 95% and the Activity [3] was 100%. The Activity [4] was -74%, the Activity [5] was -83% and the Activity [6] was -86%. For the same compound, the Activity [7] was -83%, the Activity [8] was -35% and the Activity [9] was -42%. The Activity [10] was 87%, the Activity [11] was -92.56% and the Activity [12] was -90%. For the same compound, the Activity [13] was -51%, the Activity [14] was 100% and the Activity [15] was 99%. For the same compound, the Activity [16] was 93%, the Activity [17] was 105% and the Activity [18] was 88%. It also gave an Activity [19] of 95%, an Activity [20] of 82% and an Activity [21] of 77%. It also gave a GI50 ([22]; read-out: GI50) of 19.7 µM, a CC50 [22, 35] of 71.6 µM and a TGI ([22]; read-out: TGI) of 37.6 µM. It also gave a GI50 ([22]; read-out: pGI50 (converted)) of 20 µM, a CC50 [22, 36] of 70.8 µM and a TGI ([22]; read-out: pTGI (converted)) of 38 µM. For the same compound, the GI50 ([23]; read-out: GI50) was 2.15 µM, the TGI ([23]; read-out: TGI) was 3.75 µM and the GI50 ([23]; read-out: pGI50 (converted)) was 2.14 µM. It also gave a TGI ([23]; read-out: pTGI (converted)) of 3.72 µM, a GI50 ([24]; read-out: GI50) of 1.7 µM and a CC50 [24, 35] of 5.86 µM. For the same compound, the TGI ([24]; read-out: TGI) was 3.15 µM, the GI50 ([24]; read-out: pGI50 (converted)) was 1.7 µM and the CC50 [24, 36] was 5.89 µM. The TGI ([24]; read-out: pTGI (converted)) was 3.16 µM, the GI50 ([25]; read-out: GI50) was 2.69 µM and the CC50 [25, 35] was over 100 µM. For the same compound, the TGI ([25]; read-out: TGI) was 7.35 µM, the GI50 ([25]; read-out: pGI50 (converted)) was 2.69 µM and the CC50 [25, 36] was over 100 µM. The TGI ([25]; read-out: pTGI (converted)) was 7.41 µM, the GI50 ([26]; read-out: GI50) was 2 µM and the CC50 [26, 35] was 9.78 µM. The TGI ([26]; read-out: TGI) was 4.42 µM, the GI50 ([26]; read-out: pGI50 (converted)) was 2 µM and the CC50 [26, 36] was 9.77 µM. It also gave a TGI ([26]; read-out: pTGI (converted)) of 4.47 µM, a GI50 ([27]; read-out: GI50) of 7.71 µM and a CC50 [27, 35] of 48.8 µM. The TGI ([27]; read-out: TGI) was 21.7 µM, the GI50 ([27]; read-out: pGI50 (converted)) was 7.76 µM and the CC50 [27, 36] was 49 µM. For the same compound, the TGI ([27]; read-out: pTGI (converted)) was 21.9 µM, the GI50 ([28]; read-out: GI50) was 1.74 µM and the CC50 [28, 35] was 6.96 µM. For the same compound, the TGI ([28]; read-out: TGI) was 3.48 µM, the GI50 ([28]; read-out: pGI50 (converted)) was 1.74 µM and the CC50 [28, 36] was 6.92 µM. It also gave a TGI ([28]; read-out: pTGI (converted)) of 3.47 µM, a GI50 ([29]; read-out: GI50) of 6.31 µM and a CC50 [29, 35] of 70.1 µM. The TGI ([29]; read-out: TGI) was 24.3 µM, the GI50 ([29]; read-out: pGI50 (converted)) was 6.31 µM and the CC50 [29, 36] was 70.8 µM. It also gave a TGI ([29]; read-out: pTGI (converted)) of 24.5 µM, a GI50 ([30]; read-out: GI50) of 1.91 µM and a CC50 [30, 35] of over 100 µM. For the same compound, the TGI ([30]; read-out: TGI) was 4.74 µM, the GI50 ([30]; read-out: pGI50 (converted)) was 1.91 µM and the CC50 [30, 36] was over 100 µM. For the same compound, the TGI ([30]; read-out: pTGI (converted)) was 4.79 µM, the Activity [31] was 100% and the Activity [32] was 101%. For the same compound, the Activity [33] was 84% and the Activity [34] was 103%.
